Test results published in US10239871B2, “Compounds and methods for regulating integrins” (ADHAERE PHARMACEUTICALS, INC., priority 2012, dated 2019).
“Also recorded” adds a separate entry of the source.

How the values were obtained:
Cl66 cells [1] = test: Orthotopic Cl66 mammary adenocarcinoma tumor growth, with or without Taxol; assay type: in vivo; conditions: BALB/c mice
Method: The syngeneic murine mammary adenocarcinoma cell line Cl66 (moderately metastatic and is related to the highly metastatic 4T1 cell line) was orthotopically introduced in Balb/c animals, by injecting ˜5×10^5 Cl66 cells under the left mammary fat pad of WT BALB/c mice (approx. 8-10 weeks old). The tumor size was measured using calipers every other day until the end of the experiment (approx. 5 weeks). 7-days post implantation, the tumors in all animals became palpable, with an average size of ˜100 mm3. At that time, animals in each group were treated as described. LA1 was administered daily for the first two weeks and then every other day until the end of the experiment. Animals in Group 1 received Saline injections, as control. […] It can also enhance the efficacy of traditional chemotherapy in various cancers, including breast cancer, to produce a synergistic response to the treatment. It can also reduce the incidence and the size of metastases.

Cl66 cells [2] = test: Cl66 tumor re-growth after irradiation; assay type: in vivo, mice
Method: Data shown are means±SEM. *, P<0.05; **, P<0.001 (by one-way ANOVA). In this experiment, four groups of tumor-bearing animals were used (n=11/group): 1) Treatment with saline alone (red line), 2) Treatment with leukadherins LA1 alone (orange line), 3) Treatment with a single dose of 20 Gy irradiation (two 10%+10% vertices) alone (black line) and 4) Treatment with a single dose of 20 Gy irradiation and then daily LA1 (at −2 hours) (blue line). The syngeneic murine mammary adenocarcinoma cell line Cl66 (moderately metastatic and is related to the highly metastatic 4T1 cell line) was orthotopically introduced in Balb/c animals, by injecting approximately 5×10^5 Cl66 cells under the left mammary fat pad of WT BALB/c mice (approximately 10 weeks old). The tumor size was measured using calipers every other day until the end of the experiment (approximately 5 weeks). 7-days post implantation, the tumors in all animals became palpable, with an average size of ˜100 mm3. At that time, animals in groups 3 and 4 were treated with irradiation. Animals in group 4 received LA1, starting at 2 hours prior to irradiation. […]
A syngeneic xenograft model was used to address the effects of inflammatory cell recruitment on tumor cell re-growth after radio-therapy. […] The tumor size was measured using calipers every other day until the end of the experiment (approximately 5 weeks). […]

Human macrophages = test: TNF-α release from human macrophages; assay type: cell-based
[3] = system: allograft transplantation; test: Allograft transplantation model (kidney); assay type: in vivo; conditions: co-treatment with cyclosporine
CD11b/CD18 [4] = biological target: T1, CD11b/CD18 (Mus musculus, UniProt P05555); test: Cell adhesion assay, RAW 264.7 cells on immobilized fibrinogen; assay type: cell-based, murine; conditions: vs basal 1 mM Ca2+ and Mg2+
T1 construct: that have constitutive CD11b/CD18 surface expression were used; host or cells: RAW 264.7 murine macrophage cell line
T1 sequence (P05555 17-1153): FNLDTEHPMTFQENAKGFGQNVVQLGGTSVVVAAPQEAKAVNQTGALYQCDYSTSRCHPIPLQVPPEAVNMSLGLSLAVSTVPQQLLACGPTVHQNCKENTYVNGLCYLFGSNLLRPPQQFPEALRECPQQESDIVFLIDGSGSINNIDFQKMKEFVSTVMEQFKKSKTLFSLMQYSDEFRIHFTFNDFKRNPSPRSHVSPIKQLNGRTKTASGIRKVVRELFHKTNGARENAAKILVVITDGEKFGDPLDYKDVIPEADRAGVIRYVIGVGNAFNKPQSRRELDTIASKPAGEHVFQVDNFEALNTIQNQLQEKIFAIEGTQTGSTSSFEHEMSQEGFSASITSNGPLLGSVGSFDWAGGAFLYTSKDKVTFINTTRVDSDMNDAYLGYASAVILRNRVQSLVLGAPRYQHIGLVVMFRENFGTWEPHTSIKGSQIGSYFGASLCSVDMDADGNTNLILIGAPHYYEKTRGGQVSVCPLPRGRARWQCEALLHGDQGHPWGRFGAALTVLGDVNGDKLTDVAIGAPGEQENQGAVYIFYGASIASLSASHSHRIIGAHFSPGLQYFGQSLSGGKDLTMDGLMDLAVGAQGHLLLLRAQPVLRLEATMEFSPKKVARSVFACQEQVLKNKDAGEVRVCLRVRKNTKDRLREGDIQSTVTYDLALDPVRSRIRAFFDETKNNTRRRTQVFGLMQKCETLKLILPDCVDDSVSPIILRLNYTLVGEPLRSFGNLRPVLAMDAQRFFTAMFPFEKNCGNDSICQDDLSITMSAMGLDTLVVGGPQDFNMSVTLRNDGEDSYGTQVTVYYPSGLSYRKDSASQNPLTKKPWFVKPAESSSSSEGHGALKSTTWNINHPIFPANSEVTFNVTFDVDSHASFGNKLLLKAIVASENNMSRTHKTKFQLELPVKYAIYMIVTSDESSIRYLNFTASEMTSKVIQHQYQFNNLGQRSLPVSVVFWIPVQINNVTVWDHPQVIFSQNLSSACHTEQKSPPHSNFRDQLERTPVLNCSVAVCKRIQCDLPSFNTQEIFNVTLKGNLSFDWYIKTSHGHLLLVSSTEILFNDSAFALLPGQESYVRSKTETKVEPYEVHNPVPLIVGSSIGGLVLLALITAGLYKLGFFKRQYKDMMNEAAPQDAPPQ
T1 sequence (P11835 24-771 partner): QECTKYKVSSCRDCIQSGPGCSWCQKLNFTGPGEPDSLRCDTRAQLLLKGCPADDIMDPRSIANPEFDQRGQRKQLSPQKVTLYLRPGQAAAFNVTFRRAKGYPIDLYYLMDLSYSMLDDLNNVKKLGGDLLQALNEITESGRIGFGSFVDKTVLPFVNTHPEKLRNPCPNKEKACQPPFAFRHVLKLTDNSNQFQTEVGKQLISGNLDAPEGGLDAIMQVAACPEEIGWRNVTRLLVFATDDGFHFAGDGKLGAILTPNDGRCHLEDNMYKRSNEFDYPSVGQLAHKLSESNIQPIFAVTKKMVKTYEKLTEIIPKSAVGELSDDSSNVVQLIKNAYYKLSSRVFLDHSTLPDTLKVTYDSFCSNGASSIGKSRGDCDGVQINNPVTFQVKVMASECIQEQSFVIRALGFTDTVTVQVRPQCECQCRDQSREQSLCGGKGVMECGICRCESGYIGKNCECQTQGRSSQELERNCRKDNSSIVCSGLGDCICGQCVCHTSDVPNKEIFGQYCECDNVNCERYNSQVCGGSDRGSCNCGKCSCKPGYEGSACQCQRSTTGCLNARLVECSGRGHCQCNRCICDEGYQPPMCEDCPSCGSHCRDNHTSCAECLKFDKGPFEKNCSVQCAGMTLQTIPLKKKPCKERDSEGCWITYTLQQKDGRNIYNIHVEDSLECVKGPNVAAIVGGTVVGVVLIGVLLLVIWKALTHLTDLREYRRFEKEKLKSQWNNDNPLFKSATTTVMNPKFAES
Method: (§1) K562 cells stably transfected with plasmid encoding wild-type integrin CD11b/CD18 (K562 WT cells) have been described previously and were maintained in Iscove's Modified Dulbecco's Medium (IMDM) supplemented with 10% FBS and G418 (0.5 mg/ml). The murine macrophage cell line (RAW 264.7 cells) was obtained from ATCC and the cells were maintained in DMEM supplemented with 10% heat-inactivated FBS according to the manufacturer's instructions. The primary rat peritoneal macrophages were isolated from the wild type Fisher 344 rats that had been previously injected with 5 mL of Brewer's thioglycolate broth (Sigma-Aldrich). Macrophage purity was directly analyzed by single channel flow cytometry using rat macrophage specific monoclonal antibodies ED1 (AbD Serotec, Raleigh, N.C.), WT.5 (BD Biosciences) and His36 (BD Biosciences). Purity was typically >85%. Macrophages were used in assays immediately upon isolation.
(§2) Cell adhesion assays using K562 WT, murine RAW 264.7 cells and the primary rat macrophages were performed as previously described and used immobilized fibrinogen as the ligand of CD11b/CD18 [49]. […] The remaining adherent cells were fixed using 4% formaldehyde and quantified by imaging microscopy as previously described (22, 63). […]

SD rats = test: Subacute toxicity assessment in rats; assay type: in vivo, rat
Method: LA1 is non-toxic in vivo. A subacute toxicity assessment of LA1 in rats was performed.
LA1 had no effect on the daily food intake or growth.
Next, a subacute toxicity assessment was performed of LA1 in rats in the Comparative Pathology core. […] LA1 had no effect on the daily food intake or growth.

CD11b/CD18 [5] = test: Cell adhesion assay, primary rat macrophages on immobilized fibrinogen; assay type: cell-based; conditions: vs non-activating Ca2+ and Mg2+
Method: as §1, §2

Q: For `O=C(O)c1ccc(-c2ccc(/C=C3\SC(=S)N(Cc4ccccc4)C3=O)o2)cc1` [LA1], which “rate of tumor growth, co-treatment with Taxol” value (Cl66 cells [1]) is on record?
A: highest reduction in the rate of tumor growth

Q: What about the “rate of tumor growth, single agent” value (Cl66 cells [1]; vs vehicle) of the same molecule?
A: significant reduction in the rate of tumor growth

Q: And the “rate of tumor growth, LA1 alone without irradiation” value (Cl66 cells [2]; similar to irradiation alone)?
A: reduced rate of tumor growth

Q: What about the “rate of tumor growth post-irradiation” value (Cl66 cells [2]; single dose 20 Gy plus LA1 from -2 hours) of the same molecule?
A: significant reduction in the rate of tumor growth post-irradiation

Q: And the cellular morphology (Human macrophages; LA1 alone)?
A: no effect on cellular morphology

Q: What about the “TNF-α release from stimulated macrophages” value (Human macrophages; dsRNA antigen (R848) plus LA1, lupus patients and healthy volunteers) of the same molecule?
A: significantly reduced the TNF-α release; also recorded: significantly impaired

Q: And the “TNF-α induction by LA1 alone” value (Human macrophages; over 24 hrs)?
A: did not induce TNF-α

Q: What about the “engraftment of the donated kidney” value [3] of the same molecule?
A: much better engraftment

Q: And the “adhesion of RAW 264.7 cells to immobilized fibrinogen” value (CD11b/CD18 [4])?
A: significantly and similarly increased the level of cell adhesion

Q: What about the Haematological constants (SD rats; IP ~3 mg/kg/d for 21 d) of the same molecule?
A: on par with those of controls

Q: And the “biochemical measurements in serum and liver (enzyme levels, serum constituents)” value (SD rats; IP ~3 mg/kg/d for 21 d)?
A: no appreciable changes

Q: What about the “daily food intake or growth” value (SD rats; IP ~3 mg/kg/d for 21 d) of the same molecule?
A: no effect

Q: What about the “overt toxicity or mortality” value (SD rats; IP ~3 mg/kg/d for 21 d, SD rats of both sexes) of the same molecule?
A: failed to induce any overt toxicity or mortality

Q: What about the “relative organ weights of vital organs and their histoarchitecture” value (SD rats; autopsy, lung, heart, spleen, liver, kidney) of the same molecule?
A: no significant alterations

Q: What about the “adhesion of primary rat macrophages to immobilized fibrinogen” value (CD11b/CD18 [5]) of the same molecule?
A: significantly enhanced the level of macrophage adhesion
